In patent US12312359B2 (Vitae Pharmaceuticals, LLC, priority 2016, dated 2025) one finds IC50 and EC50 data, which are given here for 20 compounds.

For experiment [1], the target named is T1, biotinylated wild-type menin and MLL-AF9 fusion protein (menin/MLL binding) (Homo sapiens, UniProt O00255).
T1 construct: made in house; host or cells: menin: E. coli; MLL-AF9-FLAG: HEK293 cells, used as cleared lysate
T1 sequence (O00255 1-610): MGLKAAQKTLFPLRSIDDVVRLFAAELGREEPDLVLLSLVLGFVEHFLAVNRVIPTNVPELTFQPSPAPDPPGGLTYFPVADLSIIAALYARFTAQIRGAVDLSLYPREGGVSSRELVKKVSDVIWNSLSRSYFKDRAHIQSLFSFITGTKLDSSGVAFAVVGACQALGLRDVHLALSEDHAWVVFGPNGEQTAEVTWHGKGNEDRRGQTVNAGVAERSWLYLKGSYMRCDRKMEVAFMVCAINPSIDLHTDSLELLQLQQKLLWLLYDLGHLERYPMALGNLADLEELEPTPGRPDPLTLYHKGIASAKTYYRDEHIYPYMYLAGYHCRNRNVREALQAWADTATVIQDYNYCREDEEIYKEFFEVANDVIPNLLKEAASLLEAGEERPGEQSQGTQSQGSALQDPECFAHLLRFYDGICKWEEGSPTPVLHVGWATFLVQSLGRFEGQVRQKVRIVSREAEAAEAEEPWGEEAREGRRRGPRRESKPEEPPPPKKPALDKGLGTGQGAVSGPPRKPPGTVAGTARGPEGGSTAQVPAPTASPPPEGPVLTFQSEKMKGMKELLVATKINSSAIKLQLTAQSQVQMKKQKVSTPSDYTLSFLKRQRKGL
Nature of the experiment: Assay 1: menin/MLL binding AlphaLISA assay, wild-type menin. As to conditions: Table 30; column head does not say wild-type or mutated menin. An outline of the steps: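 Compound was preincubated 30 min at room temperature with biotinylated menin (5 nM) and MLL-AF9-FLAG lysate from HEK293 cells, pH 7.4 buffer with 5% DMSO and DTT. Bead-based Alpha signal after 60 min with streptavidin donor and anti-FLAG acceptor beads; four-parameter logistic fit gave IC50.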
In general terms: Bead proximity is the source of the signal in Alpha formats.

Experiment [2] relates to human acute monocytic leukemia cell line MV-4-11. Kind of experiment: Assay 2: cell proliferation assay (ATP quantitation, CellTiter-Glo), MV-4-11. The format is cell-based. As to conditions: MV-4-11 cells. An outline of the steps: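 MV-4-11 cells, 1.67×10^4 per well in medium with 10% FBS, were exposed to compound for 72 h at 37° C., 5% CO2; HL-60 cells served as toxicity control. Proliferation read as ATP content by CellTiter-Glo luminescence.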
A general note: ATP-based viability assays read luminescence as a measure of living cells.

On to `CC(C)c1ccccc1-c1cc(F)ccc1Oc1cncnc1N1CCC2(CCN(Cc3ccc4[nH]c(=O)[nH]c4c3)C2)C1` (single isomer, unassigned) [Example 41B, 5-((7-(5-((5-fluoro-2′-isopropyl-[1,1′-biphenyl]-2-yl)oxy)pyrimidin-4-yl)-2,7-diazaspiro[4.4]nonan-2-yl)methyl)-1H-benzo[d]imidazol-2(3H)-one], for which the IC50 (usually the concentration that gives 50% inhibition) in experiment [1] was less than 100 nM. Moreover, the EC50 (in general, the concentration giving half of the maximal effect) in experiment [2] (72 h) is less than 100 nM.
In the case of `NC1Cc2ccc(-c3cc(F)ccc3Oc3cncnc3N3CC4(CN(CC5CCOCC5)C4)C3)cc2C1` (stereo not shown) [Example 68, 5-(5-fluoro-2-((4-(6-((tetrahydro-2H-pyran-4-yl)methyl)-2,6-diazaspiro[3.3]heptan-2-yl)pyrimidin-5-yl)oxy)phenyl)-2,3-dihydro-1H-inden-2-amine], the IC50 in experiment [1] is less than 100 nM. For the same compound, the EC50 in experiment [2] (Homo sapiens, MV4-11, 72 h) was no less than 1000 nM.
As for `O=c1[nH]c2ccc(CN3CCC4(CCN(c5ncncc5Oc5ccc(F)cc5Cc5ccccc5)C4)C3)cc2[nH]1` (stereo not shown) [Example 77], the 50% inhibitory concentration (IC50) in experiment [1] is less than 100 nM. Further, the EC50 in experiment [2] (Homo sapiens, MV4-11, 72 h) was no less than 1000 nM.
`CC(C)c1ncncc1-c1cc(F)ccc1Oc1cncnc1N1CC2(CC(NC3CCC(C)(C#N)CC3)C2)C1` (single isomer, unassigned) [Example 148B, 4-((2-(5-(4-fluoro-2-(4-isopropylpyrimidin-5-yl)phenoxy)pyrimidin-4-yl)-2-azaspiro[3.3]heptan-6-yl)amino)-1-methylcyclohexane carbonitrile] returned an IC50 in experiment [1] of less than 100 nM. The EC50 in experiment [2] (72 h) lay within 100 to 1000 nM.
`N#Cc1ccc(-c2cc(F)ccc2Oc2cncnc2N2CCC3(CCN(Cc4ccc5c(c4)CC(=O)N5)C3)C2)c(C2CC2)c1` (stereo not shown) [Example 204, 2-cyclopropyl-5′-fluoro-2′-((4-(7-((2-oxoindolin-5-yl)methyl)-2,7-diazaspiro[4.4]nonan-2-yl)pyrimidin-5-yl)oxy)-[1,1′-biphenyl]-4-carbonitrile]: the IC50 in experiment [1] was less than 100 nM. Besides, the EC50 in experiment [2] (Homo sapiens, MV4-11, 72 h) is 100 to 1000 nM.
`CC(C)N(C(=O)c1cc(F)ccc1Oc1cncnc1N1CCC2(CC(N)C(Cc3ccc4[nH]c(=O)[nH]c4c3)C2)C1)C(C)C` (single isomer, unassigned) [Example 24B, 2-((4-(7-amino-8-((2-oxo-2,3-dihydro-1H-benzo[d]imidazol-5-yl)methyl)-2-azaspiro[4.4]nonan-2-yl)pyrimidin-5-yl)oxy)-5-fluoro-N,N-diisopropylbenzamide] yielded an IC50 in experiment [1] of less than 100 nM. The compound also showed an EC50 in experiment [2] (72 h) of no less than 1000 nM.
In experiment [1], `N#Cc1ccc(-c2cc(F)ccc2Oc2cncnc2N2CCC3(CCN(Cc4ccc5oc(=O)[nH]c5c4)C3)C2)c(C2CC2)c1` (stereo not shown) [Example 169, 2-cyclopropyl-5′-fluoro-2′-((4-(7-((2-oxo-2,3-dihydrobenzo[d]oxazol-5-yl)methyl)-2,7-diazaspiro[4.4]nonan-2-yl)pyrimidin-5-yl)oxy)-[1,1′-biphenyl]-4-carbonitrile] yielded an IC50 of less than 100 nM. Further, the EC50 in experiment [2] (Homo sapiens, MV4-11, 72 h) is less than 100 nM.
As to `CC(C)N(C(=O)c1cc(F)ccc1Oc1cncnc1N1CC2(CCN(CC3CC3)C2)C1)C(C)C` [Example 103, 2-((4-(6-(cyclopropylmethyl)-2,6-diazaspiro [3.4]octan-2-yl)pyrimidin-5-yl)oxy)-5-fluoro-N,N-diisopropylbenzamide], the IC50 in experiment [1] is less than 100 nM. This compound gave an EC50 in experiment [2] (Homo sapiens, MV4-11, 72 h) of 100 to 1000 nM.
`CC(C)C(=O)N(CC(F)(F)F)c1cc(F)ccc1Oc1cncnc1N1CCC2(CCN(Cc3ccc4[nH]c(=O)[nH]c4c3)C2)C1` (stereo not shown) [Example 187, N-(5-fluoro-2-((4-(7-((2-oxo-2,3-dihydro-1H-benzo[d]imidazol-5-yl)methyl)-2,7-diazaspiro[4.4]nonan-2-yl)pyrimidin-5-yl)oxy)phenyl)-N-(2,2,2-trifluoroethyl)iso-butyramide] yielded an IC50 in experiment [1] of less than 100 nM. In addition, the EC50 in experiment [2] (Homo sapiens, MV4-11, 72 h) was less than 100 nM.
Turning to `CCN(C(=O)c1cc(F)ccc1Oc1cncnc1N1CCC2(CCN(Cc3ccc4[nH]c(=O)[nH]c4c3)C2)C1)C(C)C` (single isomer, unassigned) [Example 2B, N-ethyl-5-fluoro-N-isopropyl-2-((4-(7-((2-oxo-2,3-dihydro-1H-benzo[d]imidazol-5-yl)methyl)-2,7-diazaspiro[4.4]nonan-2-yl)pyrimidin-5-yl)oxy)benzamide], the IC50 in experiment [1] was less than 100 nM. In experiment [2] (Homo sapiens, MV4-11, 72 h), the EC50 was less than 100 nM.
`CC1CCCN1C(=O)c1cc(F)ccc1Oc1cncnc1N1CCC2(CCN(Cc3ccc4[nH]c(=O)[nH]c4c3)C2)C1` (stereo not shown) [Example 211, 5-((7-(5-(4-fluoro-2-(2-methylpyrrolidine-1-carbonyl)phenoxy)pyrimidin-4-yl)-2,7-diazaspiro[4.4]nonan-2-yl)methyl)-1,3-dihydro-2H-benzo [d]imidazol-2-one]: in experiment [1], the IC50 is less than 100 nM. Further, the 50% effective concentration (EC50) in experiment [2] (Homo sapiens, MV4-11, 72 h) lay in the range of 100 to 1000 nM.
With `CC(C)N(C)C(=O)c1cc(F)ccc1Oc1cncnc1N1CC2(CN(CC3CCOCC3)C2)C1` [Example 225, 5-fluoro-N-isopropyl-N-methyl-2-((4-(6-((tetrahydro-2H-pyran-4-yl)methyl)-2,6-diazaspiro[3.3]heptan-2-yl)pyrimidin-5-yl)oxy)benzamide], the IC50 in experiment [1] was less than 100 nM. The compound also came in with an EC50 in experiment [2] (Homo sapiens, MV4-11, 72 h) of 100 to 1000 nM.
Take `Cc1cc(C#N)ccc1-c1cc(F)ccc1Oc1cncnc1N1CCC2(CCN(Cc3ccc4[nH]c(=O)[nH]c4c3)C2)C1` (stereo not shown) [Example 48, 5′-fluoro-2-methyl-2′-((4-(7-((2-oxo-2,3-dihydro-1H-benzo[d]imidazol-5-yl)methyl)-2,7-diazaspiro[4.4]nonan-2-yl)pyrimidin-5-yl)oxy)-[1,1′-biphenyl]-4-carbonitrile]: the IC50 in experiment [1] is less than 100 nM. The EC50 in experiment [2] (72 h) was 100 to 1000 nM.
`O=C(c1cc(F)ccc1Oc1cncnc1N1CCC2(CCN(Cc3ccc4[nH]c(=O)[nH]c4c3)C2)C1)N1C2CCC1CC2` (stereo not shown) [Example 212, 5-((7-(5-(2-((1s,4s)-7-azabicyclo[2.2.1]heptane-7-carbonyl)-4-fluorophenoxy)pyrimidin-4-yl)-2,7-diazaspiro [4.4]nonan-2-yl)methyl)-1,3-dihydro-2H-benzo[d]imidazol-2-one] registered an IC50 in experiment [1] of less than 100 nM. In experiment [2] (Homo sapiens, MV4-11, 72 h), this compound yielded an EC50 of 100 to 1000 nM.
Turning to `COC(=O)N(C)c1cc(F)ccc1Oc1cncnc1N1CCC2(CCN(Cc3ccc4[nH]c(=O)[nH]c4c3)C2)C1` (stereo not shown) [Example 207, methyl (5-fluoro-2-((4-(7-((2-oxo-2,3-dihydro-1H-benzo[d]imidazol-5-yl)methyl)-2,7-diazaspiro[4.4]nonan-2-yl)pyrimidin-5-yl)oxy)phenyl) (methyl)carbamate], the IC50 in experiment [1] is less than 100 nM. For the same compound, the EC50 in experiment [2] (Homo sapiens, MV4-11, 72 h) lay in the range of 100 to 1000 nM.
As for `CC(C)c1ncncc1-c1cc(F)ccc1Oc1cnccc1N1CCC2(CCN(Cc3ccc4[nH]c(=O)[nH]c4c3)C2)C1` (stereo not shown) [Example 28, 5-((7-(3-(4-fluoro-2-(4-isopropylpyrimidin-5-yl)phenoxy)pyridin-4-yl)-2,7-diazaspiro[4.4]nonan-2-yl)methyl)-1,3-dihydro-2H-benzo[d]imidazol-2-one], the IC50 in experiment [1] was less than 100 nM. This compound also came in with an EC50 in experiment [2] (Homo sapiens, MV4-11, 72 h) of less than 100 nM.
On to `CCN(C(=O)c1cc(F)ccc1Oc1cncnc1N1CCC2(CCN(Cc3ccc4c(c3)[nH]c(=O)n4CCO)C2)C1)C(C)C` (stereo not shown) [Example 4, N-ethyl-5-fluoro-2-((4-(7-((1-(2-hydroxyethyl)-2-oxo-2,3-dihydro-1H-benzo[d]imidazol-5-yl)methyl)-2,7-diazaspiro[4.4]nonan-2-yl)pyrimidin-5-yl)oxy)-N-isopropylbenzamide], for which the IC50 in experiment [1] was less than 100 nM. The compound also displayed a concentration for a half-maximal effect (EC50) in experiment [2] (Homo sapiens, MV4-11, 72 h) of less than 100 nM.
For `CC(C)c1ncncc1-c1cc(F)ccc1Oc1cncnc1N1CC2(CN(C(=O)Cc3ccc4c(c3)NC(=O)C4(C)C)C2)C1` [Example 133, 6-(2-(6-(5-(4-fluoro-2-(4-isopropylpyrimidin-5-yl)phenoxy)pyrimidin-4-yl)-2,6-diazaspiro[3.3]heptan-2-yl)-2-oxoethyl)-3,3-dimethylindolin-2-one], in experiment [1], the IC50 was less than 100 nM. In addition, in experiment [2] (Homo sapiens, MV4-11, 72 h), the EC50 was 100 to 1000 nM.
In turn, `Cc1cc(C#N)ccc1-c1cc(F)ccc1Oc1cncnc1N1CCC2(CCN(Cc3ccc4[nH]c(=O)[nH]c4c3)C2)C1` (stereo not shown) [Example 226, 5′-fluoro-2-methyl-2′-((4-(7-((2-oxo-2,3-dihydro-1H-benzo[d]imidazol-5-yl)methyl)-2,7-diazaspiro[4.4]nonan-2-yl)pyrimidin-5-yl)oxy)-[1,1′-biphenyl]-4-carbonitrile] registered an IC50 in experiment [1] of less than 100 nM. For the same compound, in experiment [2] (72 h), the EC50 is no less than 1000 nM.
In turn, `CCN(C(=O)C(C)C)c1cc(F)ccc1Oc1cncnc1N1CC2(CN(CC3CCOCC3)C2)C1` [Example 121, N-ethyl-N-(5-fluoro-2-((4-(6-((tetrahydro-2H-pyran-4-yl)methyl)-2,6-diazaspiro[3.3]heptan-2-yl)pyrimidin-5-yl)oxy)phenyl)isobutyramide] came in with an IC50 in experiment [1] of less than 100 nM. Further, in experiment [2] (Homo sapiens, MV4-11, 72 h), the EC50 is 100 to 1000 nM.
